Measurements from paper PMC5643545, “A novel library of -arylketones as potential inhibitors of α-glucosidase: Their design, synthesis, in vitro and in vivo studies” (Scientific Reports, 2017).

How the values were obtained:
[1] = molecular target: T1, α-mannosidase (jack bean origin) (Canavalia ensiformis, UniProt C0HJB3); assay: α-mannosidase inhibition assay, 96-well; type: biochemical; conditions: two independent assays, performed in duplicate; read-out: IC50s α-mannosidase (jack bean)
T1 construct: purchased Sigma Aldrich; host or cells: jack bean
T1 sequence (C0HJB3 1-981): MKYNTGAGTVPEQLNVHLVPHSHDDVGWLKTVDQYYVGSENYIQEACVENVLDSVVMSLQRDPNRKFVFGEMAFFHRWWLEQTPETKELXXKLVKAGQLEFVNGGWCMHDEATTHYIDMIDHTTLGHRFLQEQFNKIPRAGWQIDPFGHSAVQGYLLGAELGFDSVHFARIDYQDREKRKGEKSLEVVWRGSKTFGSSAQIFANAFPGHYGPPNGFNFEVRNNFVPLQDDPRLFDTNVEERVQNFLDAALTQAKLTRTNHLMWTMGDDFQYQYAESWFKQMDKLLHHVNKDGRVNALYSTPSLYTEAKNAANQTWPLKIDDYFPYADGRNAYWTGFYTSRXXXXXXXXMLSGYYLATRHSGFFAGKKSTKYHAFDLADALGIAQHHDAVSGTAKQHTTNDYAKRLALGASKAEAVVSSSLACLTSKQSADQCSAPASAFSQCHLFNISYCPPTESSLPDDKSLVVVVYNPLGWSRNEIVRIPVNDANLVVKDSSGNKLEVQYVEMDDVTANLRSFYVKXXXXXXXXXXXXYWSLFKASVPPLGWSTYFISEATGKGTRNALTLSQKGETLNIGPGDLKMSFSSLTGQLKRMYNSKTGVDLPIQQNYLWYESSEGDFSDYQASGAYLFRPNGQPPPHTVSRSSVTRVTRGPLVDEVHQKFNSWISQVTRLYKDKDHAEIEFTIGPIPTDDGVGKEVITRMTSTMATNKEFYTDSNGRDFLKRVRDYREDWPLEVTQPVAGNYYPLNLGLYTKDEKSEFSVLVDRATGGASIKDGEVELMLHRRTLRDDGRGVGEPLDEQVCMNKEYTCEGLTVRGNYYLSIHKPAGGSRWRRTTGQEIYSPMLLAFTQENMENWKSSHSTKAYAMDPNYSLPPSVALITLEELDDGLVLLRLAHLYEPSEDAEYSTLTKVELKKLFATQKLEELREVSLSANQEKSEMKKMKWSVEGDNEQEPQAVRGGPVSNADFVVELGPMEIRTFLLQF
Method: (§1) To assess the inhibitory effect and also the extent of selectivity our library was against α-glucosidase (yeast origin), α-fucosidase (bovine kidney origin) and α-mannosidase (jack bean origin) (in 96-well plates employing 4-nitrophenyl-α-D-glucopyranoside (PNPG) as substrate) (Table 1). The test compounds were dissolved and diluted in dimethyl sulfoxide (DMSO). They were placed in the plate along with the substrate and 10 mM of potassium […] buffer. They were then reacted with appropriate enzymes. After incubating the plates for ten minutes, the absorbance of the wells were measured at […]. The increase in […] (ΔA) was compared against the control i.e. buffer.
(§2) The inhibitory effect of the synthesized compounds on α-glucosidase (yeast origin), α-fucosidase (bovine kidney origin) and α-mannosidase (jack bean origin) inhibitory activity was determined in 96-well plates employing the substrate PNPG and 4-nitrophenyl α-D-glucopyranoside according to the procedure previously reported by Ferreres et al.[42]. […] The absorbance was measured spectrophotometrically at 430 nm (Spectra Max M5e micro plate reader). The increase in absorbance (ΔA) was compared with that of the control (buffer instead of test compound) to compute the inhibitory concentrations (IC50) which was determined from two independent assays, performed in duplicate. […]

[2] = molecular target: T2, α-glucosidase (yeast origin) (Saccharomyces cerevisiae, UniProt P53341); assay: α-glucosidase (yeast) inhibition assay, PNPG substrate, 96-well; type: biochemical; conditions: two independent assays, performed in duplicate, 37 °C, 10 min, read-out: IC50s α-glucosidase (yeast)
T2 construct: purchased Sigma Aldrich
T2 sequence (P53341 whole entry): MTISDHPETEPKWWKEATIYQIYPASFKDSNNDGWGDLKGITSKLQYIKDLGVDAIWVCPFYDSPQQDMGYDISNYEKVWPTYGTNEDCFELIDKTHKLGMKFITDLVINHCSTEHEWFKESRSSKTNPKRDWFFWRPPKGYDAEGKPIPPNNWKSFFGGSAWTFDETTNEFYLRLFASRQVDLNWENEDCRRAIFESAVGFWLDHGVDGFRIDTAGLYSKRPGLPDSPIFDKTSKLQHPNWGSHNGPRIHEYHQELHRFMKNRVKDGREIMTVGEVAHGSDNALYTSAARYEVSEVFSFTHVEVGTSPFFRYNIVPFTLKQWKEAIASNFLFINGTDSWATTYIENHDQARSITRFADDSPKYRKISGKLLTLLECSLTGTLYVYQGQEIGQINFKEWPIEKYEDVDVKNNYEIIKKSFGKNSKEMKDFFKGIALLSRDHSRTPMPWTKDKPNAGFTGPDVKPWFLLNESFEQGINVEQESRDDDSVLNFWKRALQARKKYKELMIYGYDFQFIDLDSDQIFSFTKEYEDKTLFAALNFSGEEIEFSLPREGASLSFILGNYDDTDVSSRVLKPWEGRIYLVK
Method: The test compounds were dissolved and diluted in dimethyl sulfoxide (DMSO). They were placed in the plate along with the substrate and 10 mM of potassium sulphate buffer. They were then reacted with appropriate enzymes. After incubating the plates for ten minutes, the absorbance of the wells were measured at 430 nM. The increase in abundance (ΔA) was compared against the control i.e. buffer.
The inhibitory effect of the synthesized compounds on α-glucosidase (yeast origin), α-fucosidase (bovine kidney origin) and α-mannosidase (jack bean origin) inhibitory activity was determined in 96-well plates employing the substrate PNPG and 4-nitrophenyl α-D-glucopyranoside according to the procedure previously reported by Ferreres et al.[42]. Prior to use, all test compounds were solubilised in solvent, dimethylsulfoxide (DMSO), and then further diluted in DMSO to acquire the desired final maximum test concentration. […] The absorbance was measured spectrophotometrically at 430 nm (Spectra Max M5e micro plate reader). The increase in absorbance (ΔA) was compared with that of the control (buffer instead of test compound) to compute the inhibitory concentrations (IC50) which was determined from two independent assays, performed in duplicate.

[3] = molecular target: T3, α-fucosidase (bovine kidney origin) (Bos taurus, UniProt Q2KIM0); assay: α-fucosidase inhibition assay, 96-well; type: biochemical; conditions: two independent assays, performed in duplicate; read-out: IC50s α-fucosidase (bovine kidney)
T3 construct: purchased Sigma Aldrich; host or cells: bovine kidney
T3 sequence (Q2KIM0 23-468): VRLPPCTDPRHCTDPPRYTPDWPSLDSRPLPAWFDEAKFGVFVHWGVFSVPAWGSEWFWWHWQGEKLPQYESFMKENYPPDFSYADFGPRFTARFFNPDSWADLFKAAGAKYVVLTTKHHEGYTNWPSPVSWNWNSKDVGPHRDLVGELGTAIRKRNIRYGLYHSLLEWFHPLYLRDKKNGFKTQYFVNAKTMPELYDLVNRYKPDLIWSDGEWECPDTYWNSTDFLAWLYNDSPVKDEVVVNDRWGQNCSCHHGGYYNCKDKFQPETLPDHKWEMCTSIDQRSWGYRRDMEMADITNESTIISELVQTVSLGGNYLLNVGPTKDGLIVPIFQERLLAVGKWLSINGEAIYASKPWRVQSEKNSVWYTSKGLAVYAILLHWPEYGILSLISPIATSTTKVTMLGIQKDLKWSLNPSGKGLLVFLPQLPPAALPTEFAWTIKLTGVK
Method: as §1, §2

[4] = design: method as in doi:10.1016/S0065-7743(08)60834-9; conditions: cited from earlier work
NA-STZ-diabetic mice = tested on: NA-STZ-diabetic mice; design: method as in PMID 20879744; conditions: 10, 31.2 and 56.2 mg/Kg; cited from earlier work

For `O=C(Cc1ccccc1Br)c1ccccc1C(=O)NCCc1ccccc1` [3o], the IC50 [1] was over 50 µM, the IC50 [2] was 6.93 µM and the IC50 [3] was over 50 µM.
For `CS(=O)(=O)c1ccc(-n2nc(C(F)(F)F)cc2-c2ccc(F)cc2)cc1` [SC-58125], the half-life [4] is given as ~ 200 h.
For `CCCC=C1OC(=O)c2ccccc21` [compound 2], the blood glucose level (NA-STZ-diabetic mice) is given as “lowered blood glucose level”.
